Source: the supplement of paper PMC10883282

Experiments:
Assay in all cases: relative viability vs DMSO control (72 h) (fraction); higher = more viable cells
[1] = tested on: KHOS-240S
Summary of the method: (§1)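 Relative viability was measured with ATPLite and expressed as percent growth, averaged across up to triplicate wells. Sarcoma cell lines had been seeded in 384-well plates to reach 80–90% confluence, dosed after 24 h, and incubated 72 h at 37 °C, 5% CO2. All data were rescaled on a scale where 1 is full and 0 is none.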

[2] = tested on: RD-ES
Summary of the method: as §1

[3] = tested on: RD
Summary of the method: as §1

[4] = tested on: SK-ES-1
Summary of the method: as §1

[5] = tested on: SW982
Summary of the method: as §1

CN1CCN(CCOc2cc(OC3CCOCC3)c3c(Nc4c(Cl)ccc5c4OCO5)ncnc3c2)CC1 [Saracatinib]
relative viability
Conditions | [1] | [2] | [3] | [4] | [5]
0.00017 µM | 1.07 | 0.975 | 1.05 | 0.989 | 1.02
0.00051 µM | 1.08 | 1 | 1.08 | 1.05 | 1.09
0.00152 µM | 1.07 | 0.99 | 1.096 | 1.04 | 1.05
0.00457 µM | 1.07 | 1.01 | 1.08 | 1.01 | 1.06
0.01372 µM | 1.07 | 0.979 | 1.07 | 1.04 | 1.08
0.04115 µM | 1.08 | 0.982 | 1.01 | 1.01 | 1.08
0.1235 µM | 1.046 | 0.966 | 0.948 | 0.968 | 0.919
0.3704 µM | 0.934 | 0.935 | 0.836 | 0.951 | 0.739
1.111 µM | 0.802 | 0.898 | 0.786 | 0.903 | 0.568
3.333 µM | 0.614 | 0.858 | 0.692 | 0.81 | 0.486
10 µM | 0.451 | 0.735 | 0.642 | 0.604 | 0.442

CO[C@@H]1[C@H](N(C)C(=O)c2ccccc2)C[C@H]2O[C@]1(C)n1c3ccccc3c3c4c(c5c6ccccc6n2c5c31)C(=O)NC4 [Midostaurin]
relative viability
Conditions | [1] | [2] | [3] | [4] | [5]
0.00017 µM | 1.04 | 0.971 | 1.06 | 0.994 | 1
0.00051 µM | 1.04 | 0.991 | 1.06 | 0.969 | 0.978
0.00152 µM | 1.03 | 0.982 | 1.07 | 0.931 | 0.979
0.00457 µM | 1.04 | 0.938 | 1.09 | 0.985 | 0.931
0.01372 µM | 1.02 | 0.931 | 1.09 | 0.987 | 0.93
0.04115 µM | 0.937 | 0.923 | 1.05 | 0.966 | 0.939
0.1235 µM | 0.797 | 0.883 | 0.989 | 0.898 | 0.821
0.3704 µM | 0.536 | 0.825 | 0.731 | 0.266 | 0.375
1.111 µM | 0.256 | 0.166 | 0.46 | 0.0642 | 0.19
3.333 µM | 0.143 | 0.0737 | 0.415 | 0.0543 | 0.124
10 µM | 0.09613 | 0.0525 | 0.42 | 0.0611 | 0.122

COc1cc2nccc(Oc3ccc(NC(=O)C4(C(=O)Nc5ccc(F)cc5)CC4)cc3)c2cc1OC [Cabozantinib]
relative viability
Conditions | [1] | [2] | [3] | [4] | [5]
0.00017 µM | 1.11 | 0.916 | 1.073 | 1.01 | 1.04
0.00051 µM | 1.08 | 0.92 | 1.09 | 1.05 | 1.01
0.00152 µM | 1.08 | 0.953 | 1.09 | 1.03 | 1.03
0.00457 µM | 1.06 | 0.95 | 1.12 | 0.986 | 1.035
0.01372 µM | 1.06 | 0.938 | 1.11 | 1.04 | 1.036
0.04115 µM | 1.07 | 0.949 | 1.12 | 0.992 | 1.07
0.1235 µM | 1.02 | 0.958 | 1.13 | 1 | 1.05
0.3704 µM | 1.04 | 0.895 | 1.11 | 0.941 | 1.03
1.111 µM | 0.974 | 0.857 | 1.13 | 0.885 | 0.993
3.333 µM | 0.6869 | 0.616 | 0.864 | 0.514 | 0.598
10 µM | 0.425 | 0.252 | 0.501 | 0.128 | 0.259

Cc1ccc(C(=O)OCc2ccc([C@@H](CN)C(=O)Nc3ccc4cnccc4c3)cc2)c(C)c1 [Netarsudil]
relative viability
Conditions | [1] | [2] | [3] | [4] | [5]
0.00017 µM | 1.06 | 0.995 | 1.09 | 1.01 | 1.06
0.00051 µM | 1.07 | 0.98 | 1.1 | 0.999 | 1.03
0.00152 µM | 1.05 | 0.971 | 1.12 | 1.04 | 1.03
0.00457 µM | 1.05 | 0.9831 | 1.11 | 1.04 | 1.04
0.01372 µM | 1.01 | 0.976 | 1.1 | 1.03 | 1.05
0.04115 µM | 1.03 | 1.02 | 1.14 | 1.04 | 1.032
0.1235 µM | 0.903 | 1.015 | 1.13 | 1.03 | 0.98
0.3704 µM | 0.768 | 1.035 | 1.15 | 1.04 | 0.897
1.111 µM | 0.686 | 1.01 | 1.15 | 1.04 | 0.841
3.333 µM | 0.541 | 0.677 | 0.976 | 0.761 | 0.749
10 µM | 0.0141 | 0.0137 | 0.0128 | 0.0124 | 0.0152

CCCS(=O)(=O)N[C@H]1C[C@@H](N(C)c2ncnc3[nH]ccc23)C1 [Abrocitinib]
relative viability
Conditions | [1] | [2] | [3] | [4] | [5]
0.00017 µM | 1.03 | 0.988 | 1.06 | 1.03 | 1.03
0.00051 µM | 1.03 | 0.998 | 1.12 | 1.06 | 1.04
0.00152 µM | 1.03 | 0.985 | 1.11 | 1.04 | 1.04
0.00457 µM | 1.04 | 0.993 | 1.09 | 1.03 | 1.04
0.01372 µM | 1.04 | 1.02 | 1.09 | 1.03 | 1.02
0.04115 µM | 1.04 | 1.03 | 1.11 | 1.02 | 1.06
0.1235 µM | 0.9912 | 1.03 | 1.09 | 1.03 | 1.07
0.3704 µM | 1.02 | 1.015 | 1.08 | 1.03 | 1.044
1.111 µM | 1.03 | 1.03 | 1.15 | 1.02 | 1.04
3.333 µM | 1.05 | 1.03 | 1.1 | 1.03 | 1.056
10 µM | 0.988 | 1.03 | 1.09 | 1 | 1.06
